According to patent US20230414771A1, “PREPARATION AND USE OF IMMUNOSTIMULATORY CONJUGATED COMPLEXES FOR TARGETED DELIVERY AND ACTIVATION” (YAFEI SHANGHAI BIOLOGY MEDICINE SCIENCE & TECHNOLOGY CO., …, priority 2020, published 2023):
Where a SMILES comes first, the peptide text is derived from it. [ ]: non-standard residue; d: D form. The star is where a group is joined. Doxorubicin(3'-N) = COc1cccc2c1C(=O)c1c(O)c3c(c(O)c1C2=O)C[C@@](O)(C(=O)CO)C[C@@H]3O[C@H]1C[C@H](N*)[C@H](O)[C@H](C)O1; Thyronine(3,5,3'-I3) = N[C@@H](Cc1cc(I)c(Oc2ccc(O)c(I)c2)c(I)c1)C(=O)O; Hexanoyl(6-maleimido) = O=C1C=CC(=O)N1CCCCCC(=O)*; Propanoyl(3-maleimido) = O=C1C=CC(=O)N1CCC(=O)*; PEG6 = NCCOCCOCCOCCOCCOCCOCCC(=O)O; PEG4 = NCCOCCOCCOCCOCCC(=O)O; PEG3 = NCCOCCOCCOCCC(=O)O; PEG2 = NCCOCCOCCC(=O)O

Key:
[1] = tested on: Human hepatoma HepG2 cells; experiment: Human liver cancer HepG2 tumors in nude mice; type: in vivo; details: Mus musculus, HepG2, iv, 672 h, read-out: Tumor inhibition rate (%) Day 28
Description: • 1. Animals: nude mice aged 6-8 weeks, all female. • 2. Preparation of tumor models
Human hepatoma HepG2 cells were purchased from ATCC and identified according to the instructions provided. […] Randomization was performed when the tumor size reached 100 mm^3.
Treatment was then initiated, and the day of initiation of treatment was counted as Day 1. • 3) Treatment process
According to the clinical application of the corresponding compound, the drug was administered intravenously (IV). The compound and the control drug were administered at a dose of 54 umol/kg, and DOX could only be administered at a dose of 18 umol/kg due to toxicity limitations.

CT26 tumor = CT26 tumor immune model, tumor suppression and CD8+ T cell analysis; type: in vivo, BALB/c mice
Description: • 1) CT26 cells were purchased from ATCC. […] The corresponding 5×10^6 cells were injected subcutaneously into the back of […] mice. After the size of tumors reached at least 100 mm^3, the mice were randomized into groups. Treatment was then initiated, with the day of treatment initiation being Day 1. • 3) The course of treatment. The drug was administered at an equimolar dose of 36 umol/kg. The control group was given normal saline. The drug was administered once a week for three week. • 4) Tumor CD8+ T cell analysis. Tumor tissue was homogenized, individual cells in the tumor were filtered, dissociated and washed twice with buffer, and then incubated with leukocyte common antigen CD45-PE and CD8-FITC-labeled antibodies for 1 hour at room temperature. The cells were washed twice with phosphate buffered saline containing 1% fetal bovine serum, and then the proportion of T lymphocyte antigen (CD8)-positive cells in leukocyte common antigen (CD45)-positive cells was analyzed by flow cytometry. An increase in the ratio indicates an increase in T lymphocytes and therefore an improvement in the immunity of the animal to the tumor. • 5) The grouping and test results are shown in Table 7.

[2] = Water solubility test (observation and HPLC); type: physicochemical; details: thermodynamic from solid
Description: The compounds prepared in accordance with the examples of the disclosure and the reference compounds C1, C2, C3 and C4 were lyophilized (−70° C.).

NAFLD model mice = experiment: Nonalcoholic fatty liver disease (NAFLD) model mice, serum HDL-C and LDL-C; type: in vivo; details: NAFLD (high-fat diet) C57 mice, IV twice a week for 8 weeks, 12 hour after last administration, normal group 100%; for Change from normal group HDL-C: serum HDL-C; for Change from normal group LDL-C: serum LDL-C
Description: • Methods: C57 mice were randomly divided into normal group (standard diet), model group (high-fat diet), simvastatin group (positive control, 3 mg/kg) and drug group (50 mg/kg), with 6 mice in each group. The normal group was fed with standard diet, and the other groups were fed with high-fat diet to induce NAFLD model. At the same time of modeling, the mice in each group were given the corresponding dose of 48 umol/kg medicine IV twice a week for 8 weeks in total. 12 hour after the last administration, the serum biochemical indicators were determined by automatic biochemical analyzer: High density lipoprotein cholesterol (HDL-C), and low density lipoprotein (LDL-C).

[3] = drug 36 umol/kg once a week for three weeks, PD-1 antibody 5 mg/kg

SMILES | inhibition in vivo at 54 µmol/kg [1] [%] | CD8:CD45 (%) (CT26 tumor; CD8-positive among CD45-positive cells in tumor, flow cytometry) | Tumor inhibition rate (%) Day 28 (CT26 tumor; [3]) [%] | Tumor volume (mm^3) Day 28 (CT26 tumor; [3]) [mm^3] | solubility [2] [µg/mL] | Change from normal group HDL-C (NAFLD model mice) [%] | Change from normal group LDL-C (NAFLD model mice) [%]
COc1cccc2c1C(=O)c1c(O)c3c(c(O)c1C2=O)C[C@@](O)(C(=O)CO)C[C@@H]3O[C@H]1C[C@H](NC(=O)[C@H](CC(C)C)NC(=O)[C@H](CC(N)=O)NC(=O)[C@H](C)NC(=O)[C@H](C)NC(=O)[C@H](CC(=O)O)NC(=O)CCCCCN2C(=O)C=CC2=O)[C@H](O)[C@H](C)O1 [QHL-120-DOX] ({Hexanoyl(6-maleimido)}-DAANL-{Doxorubicin(3'-N)}) | 92.8 | – | – | – | – | – | –
CCOCc1nc2c(NC(=O)OCc3ccc(NC(=O)[C@H](CC(N)=O)NC(=O)[C@H](C)NC(=O)[C@H](C)NC(=O)CCCCCN4C(=O)C=CC4=O)cc3)nc3ccccc3c2n1CC(C)(C)O [QHL-140-resiquimod] | – | 15.4 | 81.9 | 342.8 ± 112.9 | – | – | –
C[C@H](NC(=O)CCCCCN1C(=O)C=CC1=O)C(=O)N[C@@H](C)C(=O)N[C@@H](CC(N)=O)C(=O)N[C@@H](Cc1cc(I)c(Oc2ccc(O)c(I)c2)c(I)c1)C(=O)O [QHL-150-T3] ({Hexanoyl(6-maleimido)}-AAN[Thyronine(3,5,3'-I3)]-OH) | – | – | – | – | > 10000 | 86.8 | 119.32
C[C@H](NC(=O)CCOCCOCCNC(=O)CCN1C(=O)C=CC1=O)C(=O)N[C@@H](C)C(=O)N[C@@H](CC(N)=O)C(=O)N[C@@H](Cc1cc(I)c(Oc2ccc(O)c(I)c2)c(I)c1)C(=O)O [QHL-157-T3] ({Propanoyl(3-maleimido)-PEG2}-AAN[Thyronine(3,5,3'-I3)]-OH) | – | – | – | – | > 10000 | 94.8 | 110.7
C[C@H](NC(=O)CCOCCOCCOCCNC(=O)CCN1C(=O)C=CC1=O)C(=O)N[C@@H](C)C(=O)N[C@H](CC(N)=O)C(=O)N[C@@H](Cc1cc(I)c(Oc2ccc(O)c(I)c2)c(I)c1)C(=O)O [QHL-158-T3] ({Propanoyl(3-maleimido)-PEG3}-AA[dN][Thyronine(3,5,3'-I3)]-OH) | – | – | – | – | > 10000 | 91.9 | 103.6
C[C@H](NC(=O)CCOCCOCCOCCOCCNC(=O)CCN1C(=O)C=CC1=O)C(=O)N[C@@H](C)C(=O)N[C@@H](CC(N)=O)C(=O)N[C@@H](Cc1cc(I)c(Oc2ccc(O)c(I)c2)c(I)c1)C(=O)O [QHL-159-T3] ({Propanoyl(3-maleimido)-PEG4}-AAN[Thyronine(3,5,3'-I3)]-OH) | – | – | – | – | > 10000 | 97.7 | 105.3
C[C@H](NC(=O)CCOCCOCCOCCOCCOCCOCCNC(=O)CCN1C(=O)C=CC1=O)C(=O)N[C@@H](C)C(=O)N[C@H](CC(N)=O)C(=O)N[C@@H](Cc1cc(I)c(Oc2ccc(O)c(I)c2)c(I)c1)C(=O)O [QHL-160-T3] ({Propanoyl(3-maleimido)-PEG6}-AA[dN][Thyronine(3,5,3'-I3)]-OH) | – | – | – | – | > 10000 | 89.4 | 117.5
CCC(C)(C)C(=O)O[C@H]1C[C@@H](C)C=C2C=C[C@H](C)[C@H](CC[C@@H]3C[C@@H](O)CC(=O)O3)[C@H]21 [simvastatin, reference compound] | – | – | – | – | – | 86.3 | 118.3
